According to patent US20240409585A1, “MACROCYCLIC IMMUNOMODULATORS” (priority 2021, published 2024):
Where two headings read alike, the source gives them in different places. Numbered stars: 1 amine (or outer) side, 2 acyl side, 3 side chain; on linkers, the order of the positions; unused ones are H or OH. Bridge positions count the residues as written; N and C are the ends. Square brackets hold non-standard residues; d marks the D form. Peptide text beside a SMILES is read from it. * marks the point of attachment. ξ: configuration not given here. X46 = COCc1ccc(-c2ccc(C[C@H](N[*:1])C(=O)[*:2])cc2)cc1; Phe(4-CONH2) = NC(=O)c1ccc(C[C@H](N)C(=O)O)cc1; Phe(4-COOH) = N[C@@H](Cc1ccc(C(=O)O)cc1)C(=O)O; Bip = N[C@@H](Cc1ccc(-c2ccccc2)cc1)C(=O)O; Phe(2-F) = N[C@@H](Cc1ccccc1F)C(=O)O; Val(3-OH) = CC(C)(O)[C@H](N)C(=O)O; X49 = O=C(C(N[*:1])C1CCOCC1)[*:2]; 3Pal = N[C@@H](Cc1cccnc1)C(=O)O; 4Pal = N[C@@H](Cc1ccncc1)C(=O)O; Cha = N[C@@H](CC1CCCCC1)C(=O)O; Cit = NC(=O)NCCC[C@H](N)C(=O)O; Ile(3ξ) = CCC(C)[C@H](N)C(=O)O; Thr(3ξ) = CC(O)[C@H](N)C(=O)O; NMeNva = CCC[C@H](NC)C(=O)O; Carboxymethyl = O=C(O)C*; NMeA = CN[C@@H](C)C(=O)O; Nle = CCCC[C@H](N)C(=O)O; Orn = NCCC[C@H](N)C(=O)O; Dab = NCC[C@H](N)C(=O)O; ξC = NC(CS)C(=O)O

Molecular target: T1, PE-labeled human PD-L1-Ig binding to Jurkat cell line over-expressing human PD-1 (Jurkat-PD-1) (Homo sapiens, UniProt Q15116)
T1 construct: expressed in transfected cells; host or cells: Jurkat
Assay: Jurkat-PD-1 Cell Binding High-Content Screening Assay (CBA): Method 1
Details: Jurkat-hPD-1 cells, PE-labeled PD-L1-Ig 20 nM final

[1] = read-out: Jurkat HPDL1 PD1 IC50 (uM) (Method 1)

T1 sequence (Q15116 25-288): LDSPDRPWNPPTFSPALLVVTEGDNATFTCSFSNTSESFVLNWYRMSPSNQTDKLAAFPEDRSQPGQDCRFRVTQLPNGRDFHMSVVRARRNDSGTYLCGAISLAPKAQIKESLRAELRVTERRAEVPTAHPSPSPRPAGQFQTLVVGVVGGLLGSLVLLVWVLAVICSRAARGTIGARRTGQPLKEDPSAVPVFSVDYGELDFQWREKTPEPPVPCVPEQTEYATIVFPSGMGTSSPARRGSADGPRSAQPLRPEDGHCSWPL

**Q.** For `CC(C)C[C@@H]1NC(=O)[C@H](CCN)NC(=O)[C@@H](CC(C)C)NC(=O)[C@H](C)N(C)C(=O)[C@H](CCCNC(N)=O)NC(=O)[C@H](Cc2ccc(-c3ccccc3)cc2)NC(=O)[C@H](C(C)C)NC(=O)[C@H](Cc2c[nH]c3ccccc23)NC(=O)[C@H](CC(=O)O)NC(=O)[C@H](Cc2ccc(C(=O)O)cc2)NC(=O)[C@H](Cc2ccncc2)NC(=O)CSC[C@@H](C(=O)N[C@@H](C)C(N)=O)NC(=O)[C@H]([C@@H](C)O)NC(=O)[C@H](C(C)C)NC1=O` [Compound 1328] ({CH2CO}-[4Pal][Phe(4-COOH)]DWV[Bip][Cit][NMeA][dL][Dab]LVTCA-NH2; thioether N-14), which IC50 [1] is on record?
**A.** 0.01 µM

**Q.** `CCCC[C@@H]1NC(=O)[C@H](CCCNC(=N)N)NC(=O)[C@@H](CC(C)C)NC(=O)[C@H](C)N(C)C(=O)[C@H](C(C)C)NC(=O)[C@H](Cc2ccc(-c3ccccc3)cc2)NC(=O)[C@H](C(C)C)NC(=O)[C@H](Cc2c[nH]c3ccccc23)NC(=O)[C@H](CC(=O)O)NC(=O)[C@H](Cc2ccc(O)cc2)NC(=O)[C@H](Cc2ccc(OCC(=O)O)cc2)NC(=O)CSC[C@@H](C(=O)N[C@@H](C)C(N)=O)NC(=O)[C@H]([C@@H](C)O)NC(=O)[C@H](C(C)C)NC1=O` [Compound 1501] ({CH2CO}-Y(Carboxymethyl)YDWV[Bip]V[NMeA][dL]R[Nle]VTCA-NH2; thioether N-14) was tested. Which IC50 [1] did it give?
**A.** 0.08 µM

**Q.** With `CC(C)C[C@H]1NC(=O)[C@H](C)N(C)C(=O)[C@H](CCCN)NC(=O)[C@H](Cc2ccc(-c3ccccc3)cc2)NC(=O)[C@H](C(C)C)NC(=O)[C@H](Cc2c[nH]c3ccccc23)NC(=O)[C@H](CC(=O)O)NC(=O)[C@H](Cc2ccc(O)cc2)NC(=O)[C@H](CC(N)=O)NC(=O)CSC[C@@H](C(=O)N[C@@H](C)C(N)=O)NC(=O)[C@H]([C@@H](C)O)NC(=O)[C@H](C(C)C)NC(=O)[C@H](CC2CCCCC2)NC(=O)[C@H](CCCNC(=N)N)NC1=O` [Compound 1276] ({CH2CO}-NYDWV[Bip][Orn][NMeA][dL]R[Cha]VTCA-NH2; thioether N-14) as the compound, how does the IC50 [1] read?
**A.** 0.03 µM

**Q.** For `CCC(C)[C@@H]1NC(=O)[C@H](Cc2ccc(-c3ccccc3)cc2)NC(=O)[C@H](C(C)C)NC(=O)[C@H](Cc2c[nH]c3ccccc23)NC(=O)[C@H](CC(=O)O)NC(=O)[C@H](Cc2ccc(O)cc2)NC(=O)[C@H](Cc2ccncc2)NC(=O)CSCC(C(=O)N[C@@H](CCCCN)C(=O)O)NC(=O)[C@H](C(C)O)NC(=O)[C@H](C(C)C)NC(=O)[C@H](CC2CCCCC2)NC(=O)[C@H](CC(N)=O)NC(=O)[C@@H](CC(C)C)NC(=O)[C@H](C)N(C)C1=O` (stereo partly drawn) [Compound 2215] ({CH2CO}-[4Pal]YDWV[Bip][Ile(3ξ)][NMeA][dL]N[Cha]V[Thr(3ξ)][ξC]K-OH; thioether N-14), which IC50 [1] is on record?
**A.** 0.03 µM

**Q.** Which IC50 [1] does the source give for `CC(C)C[C@@H]1NC(=O)[C@H](Cc2c[nH]c3ccccc23)NC(=O)[C@H](CC(=O)O)NC(=O)[C@H](Cc2ccc(C(N)=O)cc2)NC(=O)[C@H](Cc2ccccc2)NC(=O)CSC[C@@H](C(=O)N[C@@H](C)C(N)=O)NC(=O)[C@H](CO)NC(=O)[C@H](C(C)C)NC(=O)[C@H](CC(C)C)NC(=O)[C@H](CC(N)=O)NC(=O)[C@@H](C)NC(=O)[C@H](C)N(C)C(=O)[C@H](C(C)C)NC(=O)[C@H](Cc2ccc(-c3ccccc3)cc2)NC1=O` [Compound 1740] ({CH2CO}-F[Phe(4-CONH2)]DWL[Bip]V[NMeA][dA]NLVSCA-NH2; thioether N-14) here?
**A.** 0.02 µM

**Q.** How did the IC50 [1] turn out when `CCC(C)[C@@H]1NC(=O)[C@H](Cc2ccc(-c3ccccc3)cc2)NC(=O)[C@H](C(C)C)NC(=O)[C@H](Cc2c[nH]c3ccccc23)NC(=O)[C@H](CC(=O)O)NC(=O)[C@H](Cc2ccc(O)cc2)NC(=O)[C@H](CCN)NC(=O)CSC[C@@H](C(=O)NC(C(N)=O)C2CCOCC2)NC(=O)[C@H](C(C)O)NC(=O)[C@H](C(C)(C)O)NC(=O)[C@H](CC2CCCCC2)NC(=O)[C@H](CC(N)=O)NC(=O)[C@@H](CC(C)C)NC(=O)[C@H](C)N(C)C1=O` (stereo partly drawn) [Compound 2175] ({CH2CO}-[Dab]YDWV[Bip][Ile(3ξ)][NMeA][dL]N[Cha][Val(3-OH)][Thr(3ξ)]C[X49]-NH2; thioether N-14) was run?
**A.** 0.23 µM

**Q.** How did the IC50 [1] turn out when `CC(C)C[C@@H]1NC(=O)[C@H](Cc2c[nH]c3ccccc23)NC(=O)[C@H](CC(=O)O)NC(=O)[C@H](Cc2ccc(O)cc2)NC(=O)[C@H](Cc2ccccc2)NC(=O)CSC[C@@H](C(=O)NCC(N)=O)NC(=O)[C@H](CO)NC(=O)[C@H](C(C)C)NC(=O)[C@H](CC(C)C)NC(=O)[C@H](CC(N)=O)NC(=O)[C@@H](CO)NC(=O)[C@H](C)N(C)C(=O)[C@H](C(C)C)NC(=O)[C@H](Cc2ccc(-c3ccccc3)cc2)NC1=O` [Compound 1819] ({CH2CO}-FYDWL[Bip]V[NMeA][dS]NLVSCG-NH2; thioether N-14) was run?
**A.** 0.43 µM

**Q.** How did the IC50 (Jurkat HPDL1 PD1 IC50 (uM) (Method 1)) turn out when `CC(C)C[C@@H]1NC(=O)[C@H](CCN)NC(=O)[C@@H](CC(C)C)NC(=O)[C@H](C)N(C)C(=O)[C@H](CCCNC(=N)N)NC(=O)[C@H](Cc2ccc(-c3ccccc3)cc2)NC(=O)[C@H](C(C)C)NC(=O)[C@H](Cc2c[nH]c3ccccc23)NC(=O)[C@H](CC(=O)O)NC(=O)[C@H](Cc2ccc(O)cc2)NC(=O)[C@H](Cc2cccnc2)NC(=O)CSC[C@@H](C(=O)N[C@@H](C)C(N)=O)NC(=O)[C@H](CO)NC(=O)[C@H](C(C)C)NC1=O` [Compound 1034] ({CH2CO}-[3Pal]YDWV[Bip]R[NMeA][dL][Dab]LVSCA-NH2; thioether N-14) was run?
**A.** 0.05 µM

**Q.** `COCc1ccc(-c2ccc(C[C@@H]3NC(=O)[C@H](C(C)C)NC(=O)[C@H](Cc4c[nH]c5ccccc45)NC(=O)[C@H](CC(=O)O)NC(=O)[C@H](Cc4ccc(O)cc4)NC(=O)[C@H](CC(N)=O)NC(=O)CSC[C@@H](C(=O)N[C@@H](C)C(N)=O)NC(=O)[C@H]([C@@H](C)O)NC(=O)[C@H](C(C)C)NC(=O)[C@H](CC(C)C)NC(=O)[C@H](CCN)NC(=O)[C@@H](CC(C)C)NC(=O)[C@H](C)N(C)C(=O)[C@H](CCCNC(=N)N)NC3=O)cc2)cc1` [Compound 1205] ({CH2CO}-NYDWV[X46]R[NMeA][dL][Dab]LVTCA-NH2; thioether N-14) was tested. Which IC50 [1] did it give?
**A.** 0.81 µM

**Q.** Which IC50 [1] does the source give for `CCC[C@H]1C(=O)N[C@H](CC(C)C)C(=O)N[C@@H](CCN)C(=O)N[C@@H](CC(C)C)C(=O)N[C@@H](C(C)C)C(=O)N[C@@H]([C@@H](C)O)C(=O)N[C@H](C(=O)N[C@@H](C)C(N)=O)CSCC(=O)N[C@@H](CC(N)=O)C(=O)N[C@@H](Cc2ccc(O)cc2)C(=O)N[C@@H](CC(=O)O)C(=O)N[C@@H](Cc2c[nH]c3ccccc23)C(=O)N[C@@H](C(C)C)C(=O)N[C@@H](Cc2ccc(-c3ccccc3)cc2)C(=O)N[C@@H](C(C)C)C(=O)N1C` [Compound 1369] ({CH2CO}-NYDWV[Bip]V[NMeNva][dL][Dab]LVTCA-NH2; thioether N-14) here?
**A.** 0.03 µM

**Q.** With `CC(C)C[C@@H]1NC(=O)[C@H](Cc2c[nH]c3ccccc23)NC(=O)[C@H](CC(=O)O)NC(=O)[C@H](Cc2ccccc2F)NC(=O)[C@H](Cc2ccccc2)NC(=O)CSC[C@@H](C(=O)N[C@@H](C)C(N)=O)NC(=O)[C@H](CO)NC(=O)[C@H](C(C)C)NC(=O)[C@H](CC(C)C)NC(=O)[C@H](CC(N)=O)NC(=O)[C@@H](C)NC(=O)[C@H](C)N(C)C(=O)[C@H](C(C)C)NC(=O)[C@H](Cc2ccc(-c3ccccc3)cc2)NC1=O` [Compound 1735] ({CH2CO}-F[Phe(2-F)]DWL[Bip]V[NMeA][dA]NLVSCA-NH2; thioether N-14) as the compound, how does the IC50 [1] read?
**A.** 0.02 µM
